Results reported in ChEMBL document CHEMBL1155766, “Secondary metabolites from the roots of Astragalus zahlbruckneri” (J Nat Prod, 2001).
Calls of active or inactive are those of the source. No cut-off for these calls is given here.

Biological target: T1, Sex hormone-binding globulin (Homo sapiens) (UniProt P04278)
T1 sequence (whole entry): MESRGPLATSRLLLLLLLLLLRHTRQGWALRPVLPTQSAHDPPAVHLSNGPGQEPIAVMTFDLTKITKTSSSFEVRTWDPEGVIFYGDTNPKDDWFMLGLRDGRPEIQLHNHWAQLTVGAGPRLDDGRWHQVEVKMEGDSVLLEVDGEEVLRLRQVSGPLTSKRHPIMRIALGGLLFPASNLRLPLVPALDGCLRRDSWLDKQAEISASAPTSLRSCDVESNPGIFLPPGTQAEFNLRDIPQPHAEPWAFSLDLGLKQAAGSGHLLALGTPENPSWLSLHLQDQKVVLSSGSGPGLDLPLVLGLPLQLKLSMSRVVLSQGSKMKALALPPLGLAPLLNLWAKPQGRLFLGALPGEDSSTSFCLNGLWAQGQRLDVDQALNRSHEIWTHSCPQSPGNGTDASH
Experiment: Binding affinity to human sex hormone binding globulin

COc1cc([C@@H]2O[C@@H](c3ccc(O)c(OC)c3)[C@H](CO)[C@H]2CO)ccc1O
Activity: Active
